Assay results: publication PMC10290372, “Synthesis and tyrosinase inhibitory activities of novel isopropylquinazolinones” (BMC Chemistry, 2023)
“Also recorded” adds a separate entry of the source. Read-outs that look alike come from different tables or passages of the source.

Tests used:
[1] = target: T1, mushroom tyrosinase (Agaricus bisporus, UniProt C7FF04); experiment: Screening of mushroom tyrosinase inhibitory activity (oxidation of L-dopa); type: biochemical; settings: L-dopa substrate, mean ± S.E; for inhibition at 50 µM: 50 µM compound
T1 construct: purchased Sigma-Aldrich, St Louis, MO, USA
Experimental: All newly synthesized compounds (9a–q) were examined for their inhibitory potentials against the tyrosinase enzyme and the results were presented in Table 1 and the structure–activity relationships (SARs) were constructed. […].
Tyrosinase inhibitory activity was determined based on the previously described procedure with a slight modification. In brief, the test reaction mixture comprised 10 µL of each derivative, and 10 µL of mushroom tyrosinase (500 units; Sigma-Aldrich, St Louis, MO, USA) in 160 potassium phosphate buffer (pH = 6.8). The reaction mixture was incubated at 37 °C for 20 min and then 20 µL of L-Dopa (0.5 mmol/L) was added to each well, and the absorption was measured at 475 nm. The absorbance of the same mixture without tyrosinase was used as the control. Kojic acid was used as a positive control. The optical density of the inhibition in the control was considered to represent 100%. The data are expressed as mean percentages and the results were repeated in triplicate.

[2] = DPPH radical scavenging assay (antioxidant activity); settings: for % Inhibition at 100 µM: 100 µM compound, mean ± S.E of three independent experiments; for antioxidant capacity: result in words; for IC50: NA means not active, read-out: IC50 (µM) ± RSD
Experimental: In vitro antioxidant activities of the synthesized compounds were determined quantitatively using DPPH radical scavenging assay. DPPH is a stable free radical at room temperature and accepts an electron or hydrogen radical from an antioxidant to become a stable diamagnetic molecule. […] Similar to previous studies, halogens especially fluorine, increases antioxidant activity.
The DPPH antioxidant potencies of all derivatives were performed according to previously published articles.

[3] = system: tyrosinase; settings: cited from earlier work; for IC50: tyrosinase
[4] = target: tyrosinase (Agaricus bisporus, UniProt C7FF04); experiment: Enzyme kinetic studies of tyrosinase inhibition (Lineweaver-Burk and secondary plots); type: biochemical, mushroom
Experimental: Fig. 2 Kinetics of tyrosinase inhibition by 9q. a The Lineweaver–Burk plot in the absence and presence of different concentrations of 9q; b The secondary plot of slopes of the lines vs various concentrations of 9q; c The secondary plot of 1/Vmax vs various concentrations of 9q
A Lineweaver–Burk plot was generated to identify the type of inhibition and the Michaelis–Menten constant (Km) value was determined from the plot between the reciprocal of the substrate concentration (1/[S]) and reciprocal of enzyme rate (1/V) over various inhibitor concentrations.

[5] = system: B16F10 cell line; parameters: method as in PMID 33640246; settings: cited from earlier work
[6] = system: B16F10 cell line; parameters: method as in PMID 33640246; settings: cited from earlier work; remark: listed apart in the source

T1 sequence (C7FF04 1-392 limits assumed): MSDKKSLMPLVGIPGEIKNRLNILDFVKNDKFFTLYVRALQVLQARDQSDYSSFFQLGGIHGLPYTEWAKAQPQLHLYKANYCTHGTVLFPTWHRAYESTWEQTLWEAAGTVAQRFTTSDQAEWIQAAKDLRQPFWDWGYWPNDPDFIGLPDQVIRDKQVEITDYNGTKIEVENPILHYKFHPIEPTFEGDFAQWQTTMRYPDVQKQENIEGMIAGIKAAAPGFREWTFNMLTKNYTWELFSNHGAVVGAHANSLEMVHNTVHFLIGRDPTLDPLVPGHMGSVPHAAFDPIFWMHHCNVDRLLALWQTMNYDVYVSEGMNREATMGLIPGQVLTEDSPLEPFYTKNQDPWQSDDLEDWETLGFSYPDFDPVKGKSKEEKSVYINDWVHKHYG
tyrosinase (Agaricus bisporus, UniProt C7FF04), sequence (C7FF04 2-392): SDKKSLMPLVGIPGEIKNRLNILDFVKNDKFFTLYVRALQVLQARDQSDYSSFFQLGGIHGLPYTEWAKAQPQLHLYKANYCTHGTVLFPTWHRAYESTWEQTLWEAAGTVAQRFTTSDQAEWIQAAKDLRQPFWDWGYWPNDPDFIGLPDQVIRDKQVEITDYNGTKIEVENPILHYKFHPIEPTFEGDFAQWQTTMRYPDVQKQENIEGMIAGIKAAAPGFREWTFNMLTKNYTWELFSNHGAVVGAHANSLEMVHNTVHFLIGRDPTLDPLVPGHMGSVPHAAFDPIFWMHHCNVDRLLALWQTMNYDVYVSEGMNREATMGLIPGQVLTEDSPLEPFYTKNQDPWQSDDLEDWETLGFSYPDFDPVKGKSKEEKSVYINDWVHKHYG

Row | inhibition at 50 µM [1] [%] | melting point [°C] | Compound | % Inhibition at 100 µM [2] [%] | also measured
1 | 27.8 ± 1.19 | 203 to 205 | CC(C)n1c(SCC(=O)Nc2cccc(Cl)c2)nc2ccccc2c1=O [Compound 9c, N-(3-chlorophenyl)-2-((3-isopropyl-4-oxo-3,4-dihydroquinazolin-2-yl)thio)acetamide] | 18.71 ± 5.39 | –
2 | 35.5 ± 4.91 | 193 to 195 | CC(C)n1c(SCC(=O)Nc2ccc(O)cc2)nc2ccccc2c1=O [Compound 9j, N-(4-hydroxyphenyl)-2-((3-isopropyl-4-oxo-3,4-dihydroquinazolin-2-yl)thio)acetamide] | 40.83 ± 4.53 | –
3 | 26.7 ± 6.42 | 199 to 201 | Cc1ccc(NC(=O)CSc2nc3ccccc3c(=O)n2C(C)C)cc1 [Compound 9h, 2-((3-isopropyl-4-oxo-3,4-dihydroquinazolin-2-yl)thio)-N-(p-tolyl)acetamide] | 29.41 ± 1.76 | –
4 | 27.3 ± 3.43 | 222 to 225 | Cc1ccc(NC(=O)CSc2nc3ccccc3c(=O)n2C(C)C)c(C)c1 [Compound 9m, N-(2,4-dimethylphenyl)-2-((3-isopropyl-4-oxo-3,4-dihydroquinazolin-2-yl)thio)acetamide] | 21.12 ± 2.99 | –
5 | 25.4 ± 3.13 | 205 to 207 | COc1ccc(NC(=O)CSc2nc3ccccc3c(=O)n2C(C)C)cc1 [Compound 9i, 2-((3-isopropyl-4-oxo-3,4-dihydroquinazolin-2-yl)thio)-N-(4-methoxyphenyl)acetamide] | 20.05 ± 3.47 | –
6 | 32.7 ± 5.67 | 216 to 218 | CC(C)n1c(SCC(=O)Nc2ccc([N+](=O)[O-])cc2)nc2ccccc2c1=O [Compound 9f, 2-((3-isopropyl-4-oxo-3,4-dihydroquinazolin-2-yl)thio)-N-(4-nitrophenyl)acetamide] | 4.87 ± 1.65 | –
7 | 34.6 ± 4.67 | 196 to 198 | Cc1ccccc1NC(=O)CSc1nc2ccccc2c(=O)n1C(C)C [Compound 9g, 2-((3-isopropyl-4-oxo-3,4-dihydroquinazolin-2-yl)thio)-N-(o-tolyl)acetamide] | – | –
8 | – | – | O=c1[nH]c(-c2ccc(F)cc2)nc2ccccc12 [Compound A, 2–4-fluorophenyl-quinazolin-4(3H)-one] | – | type of inhibition ([3]; kinetic studies): reversible and mixed-type inhibitor; IC50 ([3]; diphenolase activity): 120 ± 2 µM
9 | 26.9 ± 4.67 | 211 to 213 | CC(C)n1c(SCC(=O)Nc2ccc(Cl)cc2)nc2ccccc2c1=O [Compound 9d, N-(4-chlorophenyl)-2-((3-isopropyl-4-oxo-3,4-dihydroquinazolin-2-yl)thio)acetamide] | 42.78 ± 4.86 | –
10 | – | – | CC(C)n1c(=S)[nH]c2ccccc2c1=O [E] | – | IC50 [3]: 15.5 ± 1.19 µM
11 | 16.3 ± 6.57 | 215 to 217 | Cc1cccc(C)c1NC(=O)CSc1nc2ccccc2c(=O)n1C(C)C [Compound 9n, N-(2,6-dimethylphenyl)-2-((3-isopropyl-4-oxo-3,4-dihydroquinazolin-2-yl)thio)acetamide] | 44.38 ± 5.03 | –
12 | 21.6 ± 3.79 | 190 to 192 | CC(C)n1c(SCC(=O)Nc2ccccc2)nc2ccccc2c1=O [Compound 9a, 2-((3-Isopropyl-4-oxo-3,4-dihydroquinazolin-2-yl)thio)-N-phenylacetamide] | 2.941 ± 1.76 | antioxidant capacity [2]: no antioxidant capacity
13 | 54.5 ± 3.94 | – | CC(C)n1c(SCC(=O)NCc2ccc(F)cc2)nc2ccccc2c1=O [Compound 9q, N-(4-fluorobenzyl)-2-((3-isopropyl-4-oxo-3,4-dihydroquinazolin-2-yl)thio)acetamide] | 60.33 ± 5.53 | IC50 ([1]; NA means not active): 34.7 ± 3.68 µM; type of inhibition ([4]; Lineweaver-Burk plot, L-Dopa substrate, 9q at 10-50 µM): mix-type inhibition; also recorded: mix-type inhibitor; also recorded: mixed mode of inhibition; inhibition constant with the enzyme-substrate complex (KIS) ([4]; secondary plot of 1/Vmax vs inhibitor concentration): 87.32 µM; IC50 [2]: 40.7 µM
14 | 18.2 ± 5.52 | 217 to 219 | Cc1cccc(NC(=O)CSc2nc3ccccc3c(=O)n2C(C)C)c1C [Compound 9l, N-(2,3-dimethylphenyl)-2-((3-isopropyl-4-oxo-3,4-dihydroquinazolin-2-yl)thio)acetamide] | 5.08 ± 2.14 | –
15 | 38 ± 4.68 | 207 to 209 | CC(C)n1c(SCC(=O)Nc2ccccc2Cl)nc2ccccc2c1=O [Compound 9b, N-(2-chlorophenyl)-2-((3-isopropyl-4-oxo-3,4-dihydroquinazolin-2-yl)thio)acetamide] | 26.47 ± 2.48 | –
16 | 29.1 ± 5.24 | 194 to 196 | CC(C)n1c(SCC(=O)NCc2ccccc2)nc2ccccc2c1=O [Compound 9p, N-benzyl-2-((3-isopropyl-4-oxo-3,4-dihydroquinazolin-2-yl)thio)acetamide] | 4.47 ± 2.35 | antioxidant capacity [2]: no antioxidant capacity
17 | – | – | CC(C)N1C(=O)c2ccccc2NC1SCc1ccccc1 (stereo not drawn) [F] | – | IC50 [3]: 71 ± 3.37 µM
18 | – | – | CC(C)=CCC/C(C)=C/c1nc2ccccc2c(=O)[nH]1 [D] | – | type of inhibition [3]: mix type inhibition pattern; IC50 [3]: 103 ± 2 µM
19 | 20.4 ± 4.19 | 195 to 197 | CCc1ccc(NC(=O)CSc2nc3ccccc3c(=O)n2C(C)C)cc1 [Compound 9k, N-(4-ethylphenyl)-2-((3-isopropyl-4-oxo-3,4-dihydroquinazolin-2-yl)thio)acetamide] | 10.16 ± 4.27 | –
20 | – | – | O=c1c(O)c(-c2ccc(O)c(O)c2)oc2cc(O)cc(O)c12 [Quercetin, reference compound] | – | IC50 [2]: 18.6 µM
21 | – | – | O=c1cc(CSc2nc3ccccc3c(=O)n2Cc2ccccn2)occ1O [C] | – | IC50 [3]: 0.46 ± 0.9 µM; melanin content [5]: reduced the melanin content; toxicity [6]: limited toxicity
22 | 35.2 ± 3.88 | 217 to 219 | CC(C)n1c(SCC(=O)Nc2ccc3ccccc3c2)nc2ccccc2c1=O [Compound 9o, 2-((3-isopropyl-4-oxo-3,4-dihydroquinazolin-2-yl)thio)-N-(naphthalen-2-yl)acetamide] | 68.44 ± 4.84 | IC50 [2]: 38.8 µM

Row | Compound | inhibition at 50 µM [1] [%] | melting point [°C] | % Inhibition at 100 µM [2] [%] | also measured
23 | CC(C)n1c(SCC(=O)Nc2ccc(Br)cc2)nc2ccccc2c1=O [Compound 9e, N-(4-bromophenyl)-2-((3-isopropyl-4-oxo-3,4-dihydroquinazolin-2-yl)thio)acetamide] | 24.8 ± 3.12 | 203 to 205 | 41.44 ± 3.85 | –
